Reference: paper PMC4890880 (ACS infectious diseases, 2016)

Each compound was assayed on Plasmodium berghei (Pb-Luc) exoerythrocytic-stage parasites (assay: microbe, parasite or virus in culture). Conditions: read-out: Inhibition% @ 50 uM rep1.

In order of rising inhibition at 50 µM:
1. O=C(CSc1ccc2nnc(-c3cccc(F)c3)n2n1)Nc1ccc2c(c1)OCO2 [MMV665918]  -43%
2. CCOc1ccc(-c2nonc2NC(=O)c2cccc(C)c2)cc1OCC [MMV665805]  44%
3. O=C(Nc1ccc(Cl)cc1)N1CCN(c2ccc3nncn3n2)CC1 [MMV665917]  60%
4. CCn1c(SCC(=O)Nc2cc(C(F)(F)F)ccc2Cl)nc2ccccc2c1=O [MMV666103]  69%
5. O=C(Nc1ccsc1C(=O)NC1CCCCC1)c1ccc(F)cc1 [MMV665939]  71%
6. Cc1c(C)n(CC(O)CNC2CCCCC2C)c2ccccc12 (stereo not drawn) [MMV665806]  90%
7. CCOc1ccc(-c2nc(NC(=O)c3cccc(S(C)(=O)=O)c3)sc2C)cc1 [MMV665913]  95%
8. COc1ccccc1N1CCN(C(CNS(=O)(=O)c2ccc(Cl)cc2)c2cccnc2)CC1 (stereo not drawn) [MMV665914]  96%
9. Cc1ccc(CN2CCC(C(=O)Nc3ccc(-c4cc5ccccc5[nH]4)cc3)CC2)o1 [MMV666071]  98%
10. Oc1ccccc1CN1CCC2(CCCN(Cc3ccccc3F)C2)C1 (stereo not drawn) [MMV666116]  98%
11. COc1ccc(-c2nc(NC(=O)CS(=O)(=O)c3ccc(F)cc3)sc2C)cc1 [MMV665915]  101%
12. CCN(CC)CCCNc1nc(-c2ccc(Cl)cc2)nc2ccccc12 [MMV665961]  101%
13. O=C(Nc1ccc(Cl)cc1C(=O)Nc1ccncc1)c1ccc(Cl)cc1Cl [MMV666057]  101%
14. COc1ccc(C2N(C)c3ccccc3N2C)cc1 [MMV666075]  101%
15. O=C(CCc1ccco1)NC1CCN(CC2(c3ccc(Cl)cc3)CCC2)CC1 [MMV666108]  101%
16. COc1cccc(NC(=O)Cn2c(C)c(C#N)c3ccccc32)c1 [MMV665826]  102%
17. CN1c2ccccc2N(C)C1c1ccc2c(c1)OCO2 [MMV666009]  102%
18. COc1ccc2c(=O)cc(C(Cl)(Cl)Cl)oc2c1 [MMV665820]  103%
19. Oc1ccc(Cl)cc1CNc1nc2ccccc2[nH]1 [MMV665850]  103%
20. COc1cccc(O)c1CN1CCC2(CCCN(Cc3ccc(F)cc3)C2)C1 (stereo not drawn) [MMV666061]  103%
21. CCOc1cc(Cl)c(C(C)NC(=O)c2cccc(OC)c2)cc1OCC (stereo not drawn) [MMV665803]  104%
22. CCCCNCC(O)(c1ccc(Cl)cc1)c1ccc(Cl)cc1 [MMV665929]  104%
23. CSC1=NC(=Nc2c(C)cccc2C)C2(CCC(C(C)(C)C)CC2)N1c1ccc(Cl)cc1 (stereo not drawn) [MMV666596]  104%
24. CCOC(=O)c1c(C)n(-c2ccc(Cl)cc2)c2ccc(OC(=O)C=Cc3ccccc3)cc12 [MMV666600]  104%

Same assay, conditions: read-out: Inhibition% @ 50 uM rep2

In order of rising inhibition at 50 µM:
1. O=C(CSc1ccc2nnc(-c3cccc(F)c3)n2n1)Nc1ccc2c(c1)OCO2 [MMV665918]  -48%
2. O=C(Nc1ccsc1C(=O)NC1CCCCC1)c1ccc(F)cc1 [MMV665939]  43%
3. O=C(Nc1ccc(Cl)cc1)N1CCN(c2ccc3nncn3n2)CC1 [MMV665917]  62%
4. CCOc1ccc(-c2nonc2NC(=O)c2cccc(C)c2)cc1OCC [MMV665805]  72%
5. CCn1c(SCC(=O)Nc2cc(C(F)(F)F)ccc2Cl)nc2ccccc2c1=O [MMV666103]  87%
6. Cc1c(C)n(CC(O)CNC2CCCCC2C)c2ccccc12 (stereo not drawn) [MMV665806]  92%
7. COc1ccccc1N1CCN(C(CNS(=O)(=O)c2ccc(Cl)cc2)c2cccnc2)CC1 (stereo not drawn) [MMV665914]  96%
8. Cc1ccc(CN2CCC(C(=O)Nc3ccc(-c4cc5ccccc5[nH]4)cc3)CC2)o1 [MMV666071]  96%
9. CCOc1ccc(-c2nc(NC(=O)c3cccc(S(C)(=O)=O)c3)sc2C)cc1 [MMV665913]  98%
10. COc1ccc(C2N(C)c3ccccc3N2C)cc1 [MMV666075]  98%
11. COc1ccc(-c2nc(NC(=O)CS(=O)(=O)c3ccc(F)cc3)sc2C)cc1 [MMV665915]  100%
12. Oc1ccccc1CN1CCC2(CCCN(Cc3ccccc3F)C2)C1 (stereo not drawn) [MMV666116]  100%
13. COc1cccc(NC(=O)Cn2c(C)c(C#N)c3ccccc32)c1 [MMV665826]  101%
14. COc1ccc2c(=O)cc(C(Cl)(Cl)Cl)oc2c1 [MMV665820]  102%
15. O=C(Nc1ccc(Cl)cc1C(=O)Nc1ccncc1)c1ccc(Cl)cc1Cl [MMV666057]  102%
16. O=C(CCc1ccco1)NC1CCN(CC2(c3ccc(Cl)cc3)CCC2)CC1 [MMV666108]  102%
17. CCN(CC)CCCNc1nc(-c2ccc(Cl)cc2)nc2ccccc12 [MMV665961]  103%
18. COc1cccc(O)c1CN1CCC2(CCCN(Cc3ccc(F)cc3)C2)C1 (stereo not drawn) [MMV666061]  103%
19. Oc1ccc(Cl)cc1CNc1nc2ccccc2[nH]1 [MMV665850]  104%
20. CCOC(=O)c1c(C)n(-c2ccc(Cl)cc2)c2ccc(OC(=O)C=Cc3ccccc3)cc12 [MMV666600]  104%
21. CCCCNCC(O)(c1ccc(Cl)cc1)c1ccc(Cl)cc1 [MMV665929]  105%
22. CN1c2ccccc2N(C)C1c1ccc2c(c1)OCO2 [MMV666009]  105%
23. CCOc1cc(Cl)c(C(C)NC(=O)c2cccc(OC)c2)cc1OCC (stereo not drawn) [MMV665803]  106%
24. CSC1=NC(=Nc2c(C)cccc2C)C2(CCC(C(C)(C)C)CC2)N1c1ccc(Cl)cc1 (stereo not drawn) [MMV666596]  106%

The compounds below were run on HepG2-A16-CD81EGFP cells (assay: cells). Conditions: Homo sapiens, HepG2, read-out: % inhibition.

In order of falling inhibition at 50 µM:
1. Oc1ccc(Cl)cc1CNc1nc2ccccc2[nH]1 [MMV665850]  98.1%
2. COc1cccc(O)c1CN1CCC2(CCCN(Cc3ccc(F)cc3)C2)C1 (stereo not drawn) [MMV666061]  96.5%
3. COc1ccc2c(=O)cc(C(Cl)(Cl)Cl)oc2c1 [MMV665820]  96.4%
4. CCCCNCC(O)(c1ccc(Cl)cc1)c1ccc(Cl)cc1 [MMV665929]  95.9%
5. CCN(CC)CCCNc1nc(-c2ccc(Cl)cc2)nc2ccccc12 [MMV665961]  95%
6. COc1ccc(-c2nc(NC(=O)CS(=O)(=O)c3ccc(F)cc3)sc2C)cc1 [MMV665915]  92.4%
7. CSC1=NC(=Nc2c(C)cccc2C)C2(CCC(C(C)(C)C)CC2)N1c1ccc(Cl)cc1 (stereo not drawn) [MMV666596]  88.7%
8. CCOc1cc(Cl)c(C(C)NC(=O)c2cccc(OC)c2)cc1OCC (stereo not drawn) [MMV665803]  86.5%
9. CN1c2ccccc2N(C)C1c1ccc2c(c1)OCO2 [MMV666009]  81.6%
10. O=C(Nc1ccc(Cl)cc1C(=O)Nc1ccncc1)c1ccc(Cl)cc1Cl [MMV666057]  78.3%
11. COc1ccc(C2N(C)c3ccccc3N2C)cc1 [MMV666075]  76.8%
12. Oc1ccccc1CN1CCC2(CCCN(Cc3ccccc3F)C2)C1 (stereo not drawn) [MMV666116]  73.5%
13. CCOC(=O)c1c(C)n(-c2ccc(Cl)cc2)c2ccc(OC(=O)C=Cc3ccccc3)cc12 [MMV666600]  70.5%
14. CCOc1ccc(-c2nc(NC(=O)c3cccc(S(C)(=O)=O)c3)sc2C)cc1 [MMV665913]  60.5%
15. O=C(CCc1ccco1)NC1CCN(CC2(c3ccc(Cl)cc3)CCC2)CC1 [MMV666108]  54.1%
16. COc1ccccc1N1CCN(C(CNS(=O)(=O)c2ccc(Cl)cc2)c2cccnc2)CC1 (stereo not drawn) [MMV665914]  49.3%
17. COc1cccc(NC(=O)Cn2c(C)c(C#N)c3ccccc32)c1 [MMV665826]  49.1%
18. Cc1ccc(CN2CCC(C(=O)Nc3ccc(-c4cc5ccccc5[nH]4)cc3)CC2)o1 [MMV666071]  42.7%
19. O=C(Nc1ccc(Cl)cc1)N1CCN(c2ccc3nncn3n2)CC1 [MMV665917]  38.3%
20. Cc1c(C)n(CC(O)CNC2CCCCC2C)c2ccccc12 (stereo not drawn) [MMV665806]  31.3%
21. O=C(Nc1ccsc1C(=O)NC1CCCCC1)c1ccc(F)cc1 [MMV665939]  25.8%
22. CCOc1ccc(-c2nonc2NC(=O)c2cccc(C)c2)cc1OCC [MMV665805]  0.576%
23. O=C(CSc1ccc2nnc(-c3cccc(F)c3)n2n1)Nc1ccc2c(c1)OCO2 [MMV665918]  -2.83%
24. CCn1c(SCC(=O)Nc2cc(C(F)(F)F)ccc2Cl)nc2ccccc2c1=O [MMV666103]  -3.72%

System: HepG2-A16-CD81EGFP cells
Assay: cells
Conditions: Homo sapiens, HepG2, read-out: % inhibition
Remark: another data set of the same source

In order of rising inhibition at 50 µM:
1. CCn1c(SCC(=O)Nc2cc(C(F)(F)F)ccc2Cl)nc2ccccc2c1=O [MMV666103]  -0.573%
2. O=C(CSc1ccc2nnc(-c3cccc(F)c3)n2n1)Nc1ccc2c(c1)OCO2 [MMV665918]  0.859%
3. CCOc1ccc(-c2nonc2NC(=O)c2cccc(C)c2)cc1OCC [MMV665805]  6.54%
4. O=C(Nc1ccc(Cl)cc1)N1CCN(c2ccc3nncn3n2)CC1 [MMV665917]  8.42%
5. O=C(Nc1ccsc1C(=O)NC1CCCCC1)c1ccc(F)cc1 [MMV665939]  35%
6. Cc1ccc(CN2CCC(C(=O)Nc3ccc(-c4cc5ccccc5[nH]4)cc3)CC2)o1 [MMV666071]  43.9%
7. Cc1c(C)n(CC(O)CNC2CCCCC2C)c2ccccc12 (stereo not drawn) [MMV665806]  47.6%
8. COc1ccccc1N1CCN(C(CNS(=O)(=O)c2ccc(Cl)cc2)c2cccnc2)CC1 (stereo not drawn) [MMV665914]  59.7%
9. CCOc1ccc(-c2nc(NC(=O)c3cccc(S(C)(=O)=O)c3)sc2C)cc1 [MMV665913]  62.9%
10. O=C(CCc1ccco1)NC1CCN(CC2(c3ccc(Cl)cc3)CCC2)CC1 [MMV666108]  67.1%
11. CCOC(=O)c1c(C)n(-c2ccc(Cl)cc2)c2ccc(OC(=O)C=Cc3ccccc3)cc12 [MMV666600]  68.1%
12. COc1cccc(NC(=O)Cn2c(C)c(C#N)c3ccccc32)c1 [MMV665826]  77.8%
13. CN1c2ccccc2N(C)C1c1ccc2c(c1)OCO2 [MMV666009]  81%
14. COc1ccc(C2N(C)c3ccccc3N2C)cc1 [MMV666075]  84.3%
15. Oc1ccccc1CN1CCC2(CCCN(Cc3ccccc3F)C2)C1 (stereo not drawn) [MMV666116]  85.7%
16. CCN(CC)CCCNc1nc(-c2ccc(Cl)cc2)nc2ccccc12 [MMV665961]  87.3%
17. CSC1=NC(=Nc2c(C)cccc2C)C2(CCC(C(C)(C)C)CC2)N1c1ccc(Cl)cc1 (stereo not drawn) [MMV666596]  89.2%
18. O=C(Nc1ccc(Cl)cc1C(=O)Nc1ccncc1)c1ccc(Cl)cc1Cl [MMV666057]  94.5%
19. COc1ccc(-c2nc(NC(=O)CS(=O)(=O)c3ccc(F)cc3)sc2C)cc1 [MMV665915]  95.2%
20. CCOc1cc(Cl)c(C(C)NC(=O)c2cccc(OC)c2)cc1OCC (stereo not drawn) [MMV665803]  97.7%
21. COc1ccc2c(=O)cc(C(Cl)(Cl)Cl)oc2c1 [MMV665820]  98.1%
22. Oc1ccc(Cl)cc1CNc1nc2ccccc2[nH]1 [MMV665850]  98.7%
23. COc1cccc(O)c1CN1CCC2(CCCN(Cc3ccc(F)cc3)C2)C1 (stereo not drawn) [MMV666061]  98.8%
24. CCCCNCC(O)(c1ccc(Cl)cc1)c1ccc(Cl)cc1 [MMV665929]  99.2%
